Measurements reported in the supplement of paper PMC11451515.

Columns and labels:
Conditions in all cases: 48 h
[1] = system: P12-Ichikawa; assay: AUC of viability dose-response curve (% viability x log10 dose units); higher = less sensitive
Summary of the method: (§1)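 Over 48 h at 37°C, leukemia cells in 1536-well plates (500 or 1000 cells/well), adapted to each medium, received library compounds in DMSO at 11 threefold doses from 47 μM to 0.79 nM. CellTiter-Glo One luminescence, normalised per plate to DMSO and cell-free wells, was fitted by a four-parameter log-logistic function of log10 dose. The area under the curve was then integrated by trapezoidal rule, after scaling curves above full viability and removing those that failed quality control.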

[2] = system: SEM cells; assay: as above
Summary of the method: as §1

[3] = system: NOMO1; assay: as above
Summary of the method: as §1

[4] = system: P12-Ichikawa; assay: cell viability relative to DMSO control; higher = less cytotoxic
Summary of the method: (§2)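 Before seeding, each leukemia line was adapted for at least four passages in each medium. NOMO1 or SEM cells (500 cells/well) and P12-Ichikawa cells (1000 cells/well) went into 1536-well plates at 5 μl, then received library compounds in DMSO by pin dosing across 11 threefold concentrations, 47 μM to 0.79 nM. Readout was CellTiter-Glo One luminescence after 48 h at 37°C, and viability is given as a per-plate percentage of DMSO wells, with cell-free wells as background.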

[5] = system: SEM cells; assay: as above
Summary of the method: as §2

[6] = system: NOMO1; assay: as above
Summary of the method: as §2

CN(CC(=O)N(Cc1ccc(C2CCCCC2)cc1)c1ccc(C(=O)O)c(O)c1)[S+](=O)([O-])c1c(F)c(F)c(F)c(F)c1F
AUC of viability dose-response curve
Conditions | [1] | [2] | [3]
HPLM + 10% dialyzed FBS | 440 | 432 | 447
RPMI 5 mM glucose + 10% FBS | 462 | 404 | 408
RPMI 5 mM glucose + 10% dialyzed FBS | 421 | 405 | 440

cell viability [%]
Conditions | [4] | [5] | [6]
HPLM + 10% dialyzed FBS, 0.000781 µM | 93 | 83.5 | 101
HPLM + 10% dialyzed FBS, 0.00234 µM | 100 | 94.7 | 109
HPLM + 10% dialyzed FBS, 0.00702 µM | 94.2 | 104 | 104
HPLM + 10% dialyzed FBS, 0.0211 µM | 102 | 95.8 | 101
HPLM + 10% dialyzed FBS, 0.0632 µM | 106 | 103 | 117
HPLM + 10% dialyzed FBS, 0.19 µM | 107 | 93.7 | 107
HPLM + 10% dialyzed FBS, 0.569 µM | 107 | 92.7 | 101
HPLM + 10% dialyzed FBS, 1.71 µM | 101 | 97.7 | 102
HPLM + 10% dialyzed FBS, 5.12 µM | 91.7 | 84.8 | 95.1
HPLM + 10% dialyzed FBS, 15.4 µM | 75.3 | 86.5 | 83.5
HPLM + 10% dialyzed FBS, 46.1 µM | 5.29 | 31.1 | 31.7
RPMI 5 mM glucose + 10% FBS, 0.000781 µM | 93 | 80.8 | 92.8
RPMI 5 mM glucose + 10% FBS, 0.00234 µM | 100 | 104 | 82.5
RPMI 5 mM glucose + 10% FBS, 0.00702 µM | 99.5 | 90 | 88.4
RPMI 5 mM glucose + 10% FBS, 0.0211 µM | 101 | 93.1 | 84.3
RPMI 5 mM glucose + 10% FBS, 0.0632 µM | 99.7 | 88.9 | 88.5
RPMI 5 mM glucose + 10% FBS, 0.19 µM | 103 | 101 | 88.6
RPMI 5 mM glucose + 10% FBS, 0.569 µM | 100 | 103 | 86.9
RPMI 5 mM glucose + 10% FBS, 1.71 µM | 105 | 97.8 | 87.7
RPMI 5 mM glucose + 10% FBS, 5.12 µM | 101 | 77.4 | 83.9
RPMI 5 mM glucose + 10% FBS, 15.4 µM | 92.5 | 54.8 | 83.4
RPMI 5 mM glucose + 10% FBS, 46.1 µM | 51.3 | 6.03 | 63
RPMI 5 mM glucose + 10% dialyzed FBS, 0.000781 µM | 87.8 | 87 | 74.1
RPMI 5 mM glucose + 10% dialyzed FBS, 0.00234 µM | 90.1 | 91.1 | 95.2
RPMI 5 mM glucose + 10% dialyzed FBS, 0.00702 µM | 91.4 | 93.1 | 103
RPMI 5 mM glucose + 10% dialyzed FBS, 0.0211 µM | 93.9 | 89.2 | 94.1
RPMI 5 mM glucose + 10% dialyzed FBS, 0.0632 µM | 96.6 | 103 | 93.8
RPMI 5 mM glucose + 10% dialyzed FBS, 0.19 µM | 87.1 | 101 | 110
RPMI 5 mM glucose + 10% dialyzed FBS, 0.569 µM | 94.3 | 84.5 | 95.4
RPMI 5 mM glucose + 10% dialyzed FBS, 1.71 µM | 96 | 91.3 | 95.3
RPMI 5 mM glucose + 10% dialyzed FBS, 5.12 µM | 97.9 | 80.3 | 95.6
RPMI 5 mM glucose + 10% dialyzed FBS, 15.4 µM | 79.6 | 66.6 | 86.6
RPMI 5 mM glucose + 10% dialyzed FBS, 46.1 µM | 29.6 | 19.9 | 51.8

CC[C@H]1OC(=O)[C@H](C)[C@@H](O[C@H]2C[C@@](C)(OC)[C@@H](O)[C@H](C)O2)[C@H](C)[C@@H](O[C@@H]2O[C@H](C)C[C@H](N(C)C)[C@H]2O)[C@](C)(O)C[C@@H](C)/C(=N\OCOCCOC)[C@H](C)[C@@H](O)[C@]1(C)O
AUC of viability dose-response curve
Conditions | [1] | [2] | [3]
HPLM + 10% dialyzed FBS | 423 | 423 | 409
RPMI 5 mM glucose + 10% FBS | 390 | 444 | 424
RPMI 5 mM glucose + 10% dialyzed FBS | 407 | 465 | 374

cell viability [%]
Conditions | [4] | [5] | [6]
HPLM + 10% dialyzed FBS, 0.000781 µM | 92.4 | 95.3 | 101
HPLM + 10% dialyzed FBS, 0.00234 µM | 96.1 | 89 | 95.6
HPLM + 10% dialyzed FBS, 0.00702 µM | 93.5 | 95.1 | 86
HPLM + 10% dialyzed FBS, 0.0211 µM | 90.4 | 95.3 | 89.4
HPLM + 10% dialyzed FBS, 0.0632 µM | 102 | 105 | 92.9
HPLM + 10% dialyzed FBS, 0.19 µM | 87.8 | 83.1 | 89.6
HPLM + 10% dialyzed FBS, 0.569 µM | 87.3 | 76.7 | 78.6
HPLM + 10% dialyzed FBS, 1.71 µM | 82.9 | 93.6 | 75.3
HPLM + 10% dialyzed FBS, 5.12 µM | 86.4 | 85.2 | 80.1
HPLM + 10% dialyzed FBS, 15.4 µM | 76.9 | 80.5 | 68.5
HPLM + 10% dialyzed FBS, 46.1 µM | 77.3 | 73.4 | 85.5
RPMI 5 mM glucose + 10% FBS, 0.000781 µM | 81.3 | 107 | 85.2
RPMI 5 mM glucose + 10% FBS, 0.00234 µM | 85 | 98.1 | 92
RPMI 5 mM glucose + 10% FBS, 0.00702 µM | 84.9 | 109 | 95
RPMI 5 mM glucose + 10% FBS, 0.0211 µM | 88.3 | 108 | 84.6
RPMI 5 mM glucose + 10% FBS, 0.0632 µM | 94.3 | 111 | 89.5
RPMI 5 mM glucose + 10% FBS, 0.19 µM | 76.8 | 87.4 | 90.7
RPMI 5 mM glucose + 10% FBS, 0.569 µM | 72.4 | 94.6 | 87.3
RPMI 5 mM glucose + 10% FBS, 1.71 µM | 73.1 | 97.5 | 88.9
RPMI 5 mM glucose + 10% FBS, 5.12 µM | 82.3 | 96.9 | 90.9
RPMI 5 mM glucose + 10% FBS, 15.4 µM | 82.4 | 87.9 | 91.1
RPMI 5 mM glucose + 10% FBS, 46.1 µM | 79.6 | 95.6 | 82
RPMI 5 mM glucose + 10% dialyzed FBS, 0.000781 µM | 89.2 | 103 | 85.9
RPMI 5 mM glucose + 10% dialyzed FBS, 0.00234 µM | 90.1 | 104 | 79.3
RPMI 5 mM glucose + 10% dialyzed FBS, 0.00702 µM | 90.2 | 107 | 83.3
RPMI 5 mM glucose + 10% dialyzed FBS, 0.0211 µM | 91.6 | 116 | 74.1
RPMI 5 mM glucose + 10% dialyzed FBS, 0.0632 µM | 112 | 108 | 76.6
RPMI 5 mM glucose + 10% dialyzed FBS, 0.19 µM | 72 | 96.3 | 69.5
RPMI 5 mM glucose + 10% dialyzed FBS, 0.569 µM | 61.3 | 92.9 | 72.1
RPMI 5 mM glucose + 10% dialyzed FBS, 1.71 µM | 85.2 | 103 | 82.1
RPMI 5 mM glucose + 10% dialyzed FBS, 5.12 µM | 81.9 | 100 | 80.1
RPMI 5 mM glucose + 10% dialyzed FBS, 15.4 µM | 71.5 | 93.8 | 79.8
RPMI 5 mM glucose + 10% dialyzed FBS, 46.1 µM | 94.3 | 71.7 | 79.8

C[C@@H](Cc1cc2c(c(C(N)=O)c1)N(CCCO)CC2)NCCOc1ccccc1OCC(F)(F)F
AUC of viability dose-response curve
Conditions | [1] | [2] | [3]
HPLM + 10% dialyzed FBS | 472 | 438 | 457
RPMI 5 mM glucose + 10% FBS | 472 | 465 | 458
RPMI 5 mM glucose + 10% dialyzed FBS | 472 | 463 | 466

cell viability [%]
Conditions | [4] | [5] | [6]
HPLM + 10% dialyzed FBS, 0.000781 µM | 91.9 | 86.8 | 94.5
HPLM + 10% dialyzed FBS, 0.00234 µM | 115 | 85.3 | 99.7
HPLM + 10% dialyzed FBS, 0.00702 µM | 101 | 76.7 | 101
HPLM + 10% dialyzed FBS, 0.0211 µM | 116 | 82.9 | 120
HPLM + 10% dialyzed FBS, 0.0632 µM | 113 | 99 | 107
HPLM + 10% dialyzed FBS, 0.19 µM | 112 | 96.7 | 123
HPLM + 10% dialyzed FBS, 0.569 µM | 119 | 95.5 | 122
HPLM + 10% dialyzed FBS, 1.71 µM | 114 | 97.3 | 135
HPLM + 10% dialyzed FBS, 5.12 µM | 112 | 101 | 111
HPLM + 10% dialyzed FBS, 15.4 µM | 118 | 98.1 | 114
HPLM + 10% dialyzed FBS, 46.1 µM | 110 | 88.7 | 113
RPMI 5 mM glucose + 10% FBS, 0.000781 µM | 99.4 | 95.1 | 94.5
RPMI 5 mM glucose + 10% FBS, 0.00234 µM | 111 | 111 | 105
RPMI 5 mM glucose + 10% FBS, 0.00702 µM | 106 | 114 | 107
RPMI 5 mM glucose + 10% FBS, 0.0211 µM | 130 | 112 | 106
RPMI 5 mM glucose + 10% FBS, 0.0632 µM | 116 | 119 | 112
RPMI 5 mM glucose + 10% FBS, 0.19 µM | 123 | 107 | 109
RPMI 5 mM glucose + 10% FBS, 0.569 µM | 115 | 121 | 110
RPMI 5 mM glucose + 10% FBS, 1.71 µM | 101 | 101 | 105
RPMI 5 mM glucose + 10% FBS, 5.12 µM | 112 | 102 | 116
RPMI 5 mM glucose + 10% FBS, 15.4 µM | 117 | 110 | 110
RPMI 5 mM glucose + 10% FBS, 46.1 µM | 102 | 99.2 | 106
RPMI 5 mM glucose + 10% dialyzed FBS, 0.000781 µM | 90.4 | 93.4 | 89.4
RPMI 5 mM glucose + 10% dialyzed FBS, 0.00234 µM | 104 | 98.3 | 106
RPMI 5 mM glucose + 10% dialyzed FBS, 0.00702 µM | 103 | 101 | 106
RPMI 5 mM glucose + 10% dialyzed FBS, 0.0211 µM | 105 | 110 | 104
RPMI 5 mM glucose + 10% dialyzed FBS, 0.0632 µM | 111 | 123 | 126
RPMI 5 mM glucose + 10% dialyzed FBS, 0.19 µM | 109 | 118 | 115
RPMI 5 mM glucose + 10% dialyzed FBS, 0.569 µM | 109 | 111 | 109
RPMI 5 mM glucose + 10% dialyzed FBS, 1.71 µM | 110 | 142 | 121
RPMI 5 mM glucose + 10% dialyzed FBS, 5.12 µM | 99.4 | 110 | 116
RPMI 5 mM glucose + 10% dialyzed FBS, 15.4 µM | 109 | 110 | 105
RPMI 5 mM glucose + 10% dialyzed FBS, 46.1 µM | 97.5 | 82.9 | 104
